Data published in patent US8093251B2, “Nitrogen-containing heterocyclic compounds and thrombopoietin receptor activators” (Nissan Chemical Industries, Ltd., priority 2006, dated 2012).

Molecular target: T1, human thrombopoietin receptor (c-mpl) (Homo sapiens, UniProt P40238)
T1 construct: expressed in transfected cells
T1 sequence (P40238 26-635): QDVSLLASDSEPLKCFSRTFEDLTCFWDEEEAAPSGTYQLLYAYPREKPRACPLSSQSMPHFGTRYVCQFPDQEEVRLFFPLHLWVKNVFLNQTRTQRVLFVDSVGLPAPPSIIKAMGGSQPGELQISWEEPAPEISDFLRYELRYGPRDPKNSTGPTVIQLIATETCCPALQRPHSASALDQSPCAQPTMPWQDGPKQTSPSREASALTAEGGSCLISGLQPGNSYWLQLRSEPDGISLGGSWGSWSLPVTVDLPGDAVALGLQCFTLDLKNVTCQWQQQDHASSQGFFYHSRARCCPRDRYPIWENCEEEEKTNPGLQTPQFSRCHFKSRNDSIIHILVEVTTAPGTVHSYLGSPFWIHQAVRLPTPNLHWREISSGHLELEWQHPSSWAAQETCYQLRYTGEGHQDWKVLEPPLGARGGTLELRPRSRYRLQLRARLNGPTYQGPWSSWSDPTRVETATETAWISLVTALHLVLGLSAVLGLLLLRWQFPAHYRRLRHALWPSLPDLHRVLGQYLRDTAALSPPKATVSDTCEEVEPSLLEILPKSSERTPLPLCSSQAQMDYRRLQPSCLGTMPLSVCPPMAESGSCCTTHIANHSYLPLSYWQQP
Assay: Stimulation of proliferation of thrombopoietin-dependent cell line UT7/EPO-mpl (WST-8)
Format: cell-based
Conditions: human leukemic cell line UT-7/EPO-mpl, 4 days incubation, WST-8, absorbance at 450 nm; read-out: EC50 (concentration that yields a growth rate corresponding to 50% of the growth observed in the presence of 10 ng/mL TPO) (converted)
Protocol: The responses of thrombopoietin receptor to the compounds of the present invention prepared in the Synthetic Examples were assayed using a human leukemic cell line, UT7/EPO-mpl.
UT7/EPO-mpl is a stable transformed cell line obtained by introducing into human leukemic cell line UT7/EPO a vector that induces expression of human thrombopoietin receptor (c-mpl) under control of cytomegalovirus immediate-early promoter by the method of Takatoku et al. (J. Biol. Chem., 272:7259-7263 (1997)). […] These two cell lines were subcultured in IMDM (GIBCO) containing 10% fetal bovine serum (Thermo Electron or BioWest) using a CO2 incubator (5% CO2, 37° C.).
The subcultured cells described above were washed twice with PBS and suspended in IMDM containing 10% fetal bovine serum at a cell density of 6×10^4 cells/ml. The cell suspension was transferred to a 96-well tissue culture plate (CORNING) in 100-μl aliquots. Then either thrombopoietin (Pepro Tech EC) or the compounds of the Synthetic Examples dissolved in dimethyl sulfoxide were diluted 83-fold with IMDM containing 10% fetal bovine serum and added to the aforementioned cell suspension in 20-μl aliquots. The cell suspension was incubated in a CO2 incubator (5% CO2, 37° C.) for 4 days. […] The formazan pigment generated was detected by measuring the absorbance at 450 nm with a 96-well microplate reader (Nihon Molecular Devices, Spectramax 190). […]

SMILES: CCOC(=O)CN1CCN(C(=S)NNC(C)=C2C(=O)N(c3ccc(C(C)(C)C)cc3)N=C2C)CC1 [Example 7]
- EC50: 71.9 nM
